Experimental data reported in US20060194262A1, “P27 ubiquitination assay and methods of use” (priority 2004, published 2006).
Read-outs that look alike come from different tables or passages of the source.

Columns and labels:
[1] = test system: T1, p27 ubiquitination (E1, E2, E3 SCF^Skp2, Cks1); assay: p27 ubiquitination assay, plate capture format (DMSO tolerance); type: biochemical, Human
T1 construct: His; Strep tag (cleaved yes); GST; made in house; host or cells: Sf9 (His-E1; p27/Cdk2/cyclin E); E. coli (His-UbcH3, Cks1); baculovirus-infected insect cells (SCF-Skp2)
Description: This assay measures the ubiquitination of cell cycle inhibitor p27 in a high-throughput-capable in vitro reconstituted system that mimics the ubiquitination of p27 in vivo. Ubiquitinated p27 is captured using an anti-p27 antibody-coated plate and detected by Europium (Eu)-labeled streptavidin that binds biotinylated ubiquitin. The assay as described below incorporates the addition of a test compound to the ubiquitination reaction.
Assay mix A (see below) contained: 3× concentration ubiquitin buffer (120 mM Tris·HCl pH 7.5, 15 mM MgCl2), 3 mM dithiothreitol, 15 ng/μL E1, 450 ng/μLE2, 15 ng/μL E3, and 12 ng/μL pre-phosphorylated p27.
Starting solution (see below) contained 0.75 mg/mL biotinylated ubiquitin and 0.75 ng/μL Cks1 in assay dilution buffer (30 mM Tris·HCl pH7.5, 1 mM DTT, 19.5% glycerol). Starting solution for negative control contains 0.75 mg/mL biotinylated ubiquitin in assay dilution buffer (30 mM Tris·HCl pH7.5, 1 mM DTT, 19.5% glycerol).
The capture plates were coated as follows. […]
The ubiquitination reaction was run as follows: 5 μL of a test compound in 6% dimethylsulfoxide (DMSO) was added to each well of a V-bottom plate. […] 25 μL enhancement solution was added per well, and the plates were read to determine the amount of time-resolved fluorescence emission at 615 nm for Europium chelate. […]

[2] = test system: p27 ubiquitination (E1, E2, E3 SCF^Skp2, Cks1); conditions: reaction includes 5 mM MgCl2
Description: A homogenous, time-resolved fluorescence resonance energy transfer (HTR-FRET) assay was developed for high throughput screening of compounds that block p27 ubiquitination in vitro. In this assay, p27 is modified with a mixture of ubiquitin (Ub) and biotinylated ubiquitin (Bio-Ub) in the presence of E1, E2, E3 and Cks1 (FIG. 11). A rabbit anti-phospho-p27 antibody and Lance Eu labeled Protein G (Eu-PRG) were used as a donor and Cy5-labeled streptavidin (Cy5-SA or Dylite-SA) is used as an acceptor. Ubiquitinated p27 is detected by FRET signal generated between Eu and Cy5.
In this format, Bio-Ub is used as a tracer to label ubiquitinated p27. Lance Eu-labeled Protein G (Eu-PRG) coupled to anti-phospho-p27 is used as the FRET donor, and SA-Cy5 is used as the FRET acceptor. The FRET signal is measured as the ratio of fluorescence emission of Cy5 at 665 nm over that of Eu at 620 nm after excitation of Eu at 340 nm.
Next, stopping conditions for the p27 ubiquitination were determined.
Assay Procedures: • 1) Prepare Starting solutions and incubate at room temperature for 20˜30 min Start+Cks1: 12 μM Ub, 3 μM Bio-Ub, and 1.875 ng/μl (187.5 nM) Cks1 in assay dilution buffer. Start−Cks1: 12 μM Ub and 3 μM Bio-Ub in assay dilution buffer. • 2) Prepare Assay mix A as indicated in Table 3 • 3) Set up reaction: In an assay plate, add 5 μl/well of Assay mix A, compound in 6% DMSO and 0.03% Brij35 (30 μg/ml; final concentration at 10 μg/ml), and Starting solutions. The total assay volume is 15 μl. Incubate at room temperature (˜23° C.-25° C.) for 1 hour. • 4) Stop the reaction with the addition of 15 μl/well of Stopping solution (40 mM EDTA, 0.1% Tween 20, 250 nM Cy5, 2 nM Eu-PRG, and 8 nM anti-phospho-p27 in PBS)

E1 = target: T2, E1 (Homo sapiens, UniProt P22314); assay: apparent Km of ubiquitin for E1; type: biochemical; conditions: read-out: apparent Km of Ub for E1
T2 sequence (P22314 1-1058): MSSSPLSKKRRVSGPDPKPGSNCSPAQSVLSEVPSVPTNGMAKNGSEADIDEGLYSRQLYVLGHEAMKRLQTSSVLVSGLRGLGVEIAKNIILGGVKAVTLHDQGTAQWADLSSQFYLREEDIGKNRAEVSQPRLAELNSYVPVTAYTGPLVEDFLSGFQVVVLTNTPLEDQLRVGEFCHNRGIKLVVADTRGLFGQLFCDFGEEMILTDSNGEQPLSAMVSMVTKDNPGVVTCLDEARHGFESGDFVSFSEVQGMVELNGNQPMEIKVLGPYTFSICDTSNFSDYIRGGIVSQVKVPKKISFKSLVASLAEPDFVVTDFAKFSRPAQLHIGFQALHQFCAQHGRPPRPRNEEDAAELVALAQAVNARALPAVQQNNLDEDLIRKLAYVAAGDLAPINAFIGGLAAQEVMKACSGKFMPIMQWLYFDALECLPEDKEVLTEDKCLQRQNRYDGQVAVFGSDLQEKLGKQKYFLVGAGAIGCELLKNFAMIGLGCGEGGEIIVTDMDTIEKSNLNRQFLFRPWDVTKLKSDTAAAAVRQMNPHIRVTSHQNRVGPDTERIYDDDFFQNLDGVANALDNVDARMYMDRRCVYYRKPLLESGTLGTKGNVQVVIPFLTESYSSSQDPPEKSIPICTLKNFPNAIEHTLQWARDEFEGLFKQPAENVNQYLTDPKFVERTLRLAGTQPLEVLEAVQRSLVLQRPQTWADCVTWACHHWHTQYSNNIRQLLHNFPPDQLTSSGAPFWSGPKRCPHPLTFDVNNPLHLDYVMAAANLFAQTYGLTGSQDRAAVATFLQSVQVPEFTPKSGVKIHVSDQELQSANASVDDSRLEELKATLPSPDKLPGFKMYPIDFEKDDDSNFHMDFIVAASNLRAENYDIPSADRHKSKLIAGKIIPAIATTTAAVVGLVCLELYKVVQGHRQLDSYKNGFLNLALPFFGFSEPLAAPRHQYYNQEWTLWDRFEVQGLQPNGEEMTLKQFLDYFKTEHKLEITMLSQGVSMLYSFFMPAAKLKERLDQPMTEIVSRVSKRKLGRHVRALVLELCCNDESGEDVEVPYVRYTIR
Description: In an HTR-FRET assay, the background FRET increases as the concentrations of Eu and Cy5 increase. In general, to achieve a low background signal, Eu concentrations should be in the low nM range while Cy5 concentrations can be up to 100-200 nM. To determine the optimal concentration of Bio-Ub used in the p27 Ub assay, 80 nM of p27 was ubiquitinated with 0-4 μM of Bio-Ub and diluted 1:4 with a detection mixture containing a final concentration of 5 nM Eu-PRG, 10 nM anti-p27, and 25-125 nM SA-Cy5. 1 uM of Bio-Ub with 125 nM of Cy5-SA gave the best signal-to-background (S/B) ratio (FIG. 12). […] Since the apparent Km of Ub for E1 is about 2 μM, 4 μM of unlabeled ubiquitin was used in the reaction (2×apparent Km). Ubiquitination of p27 in the presence of 4 μM Ub and 1 μM Bio-Ub was very similar to that of p27 in the presence of saturating concentrations of Bio-Ub (28 μM) (FIG. 13).

C[S+](C)[O-] [DMSO, dimethylsulfoxide]
p27 ubiquitination activity remained ([1]; 2% DMSO, titration between 0 and 10% DMSO): approximately 60% | p27 ubiquitination ([1]; above 15% (v/v) of DMSO, initial titration): nearly completely lost

O=C(O)CN(CCN(CC(=O)O)CC(=O)O)CC(=O)O [EDTA]
effect on p27 ubiquitination ([2]; 5 mM EDTA alone): no effect | p27 ubiquitination ([2]; 10 mM EDTA): only partially inhibited | Ubiquitination of p27 ([2]; 20 mM EDTA, data not shown): completely inhibited

ubiquitin
Km (E1): ~2000 nM
